Experimental data published in patent US20150045610A1, “METHOD OF MODIFYING SPERMATOGENESIS, SPERMIOGENESIS AND/OR FERTILITY IN MAMMALS” (Monell Chemical Senses Center, priority 2012, published 2015).

Target: T1, humanized mhT1R3 (Homo sapiens, UniProt Q7RTX0, A109T/A120V/A176D/A197V/A198V/A228S/A231N/A248T/A280V/A282S/A302S/A412V/A417V/A46T/A537T/C375D/D124S/D249S/D250G/D364H/D419E/D470T/D491G/D88A/DEL352-352/DEL488-489/E172D/E199T/E203N/E217D/E356N/E45S/E481Q/E505D/E525K/E545Q/F540P/F555L/G168S/G205S/G311T/G314N/G355L/G360D/G414H/G438R/G439D/G463S/G50T/G542N/H261R/H278R/H281Y/H332P/I485M/I536F/INS376MLQNLSSG/K32Q/K339E/K422L/K494V/K86G/L173R/L245Q/L272V/L29F/L354S/L385Q/L433M/L458M/L483S/L71F/L74M/M151L/M315I/M318V/M31A/N285S/N386L/N532H/N68L/P112S/P246H/P335S/P416H/P420H/P441T/P60I/Q221E/Q257L/Q317R/Q330L/Q336H/Q359L/Q372R/Q418S/Q504K/Q531K/R123Q/R247D/R252Q/R291G/R30K/R357A/R443Q/R467V/R473T/R479Q/R482Q/R486Y/R498Q/R52N/R550K/R553A/R556P/R560K/R56Q/S251Q/S267K/S289H/S290H/S392A/S446A/S447E/S464P/S477T/S490P/S53Q/S559P/S58N/S67P/T195Q/T346A/T377L/T390I/T434S/T480L/T63N/V152I/V277A/V366M/V36I/V381L/V393T/V437A/V465T/V61P/W72L)
T1 construct: the extracellular domain is of mouse origin and the transmembrane and intracellular domains of human origin; mouse T1R3 extracellular domain (fusion partner replacing the human extracellular domain); expressed in transfected cells; host or cells: transgenic mice (Line 7, 9, 7c) on T1R3-null background; transgene under 13 kb T1R3 promoter, followed by IRES-eGFP
T1 sequence (Q7RTX0 with tags, fused parts or gaps L29F/R30K/M31A/K32Q/V36I/E45S/A46T/G50T/R52N/S53Q/R56Q/S58N/P60I/V61P/T63N/S67P/N68L/L71F/W72L/L74M/K86G/D88A/A109T/P112S/A120V/R123Q/D124S/M151L/V152I/G168S/E172D/L173R/A176D/T195Q/A197V/A198V/E199T/E203N/G205S/E217D/Q221E/A228S/A231N/L245Q/P246H/R247D/A248T/D249S/D250G/S251Q/R252Q/Q257L/H261R/S267K/L272V/V277A/H278R/A280V/H281Y/A282S/N285S/S289H/S290H/R291G/A302S/G311T/G314N/M315I/Q317R/M318V/Q330L/H332P/P335S/Q336H/K339E/T346A/DEL352-352/L354S/G355L/E356N/R357A/Q359L/G360D/D364H/V366M/Q372R/C375D/INS376MLQNLSSG/T377L/V381L/L385Q/N386L/T390I/S392A/V393T/A412V/G414H/P416H/A417V/Q418S/D419E/P420H/K422L/L433M/T434S/V437A/G438R/G439D/P441T/R443Q/S446A/S447E/L458M/G463S/S464P/V465T/R467V/D470T/R473T/S477T/R479Q/T480L/E481Q/R482Q/L483S/I485M/R486Y/DEL488-489/S490P/D491G/K494V/R498Q/Q504K/E505D/E525K/Q531K/N532H/I536F/A537T/F540P/G542N/E545Q/R550K/R553A/F555L/R556P/S559P/R560K limits assumed): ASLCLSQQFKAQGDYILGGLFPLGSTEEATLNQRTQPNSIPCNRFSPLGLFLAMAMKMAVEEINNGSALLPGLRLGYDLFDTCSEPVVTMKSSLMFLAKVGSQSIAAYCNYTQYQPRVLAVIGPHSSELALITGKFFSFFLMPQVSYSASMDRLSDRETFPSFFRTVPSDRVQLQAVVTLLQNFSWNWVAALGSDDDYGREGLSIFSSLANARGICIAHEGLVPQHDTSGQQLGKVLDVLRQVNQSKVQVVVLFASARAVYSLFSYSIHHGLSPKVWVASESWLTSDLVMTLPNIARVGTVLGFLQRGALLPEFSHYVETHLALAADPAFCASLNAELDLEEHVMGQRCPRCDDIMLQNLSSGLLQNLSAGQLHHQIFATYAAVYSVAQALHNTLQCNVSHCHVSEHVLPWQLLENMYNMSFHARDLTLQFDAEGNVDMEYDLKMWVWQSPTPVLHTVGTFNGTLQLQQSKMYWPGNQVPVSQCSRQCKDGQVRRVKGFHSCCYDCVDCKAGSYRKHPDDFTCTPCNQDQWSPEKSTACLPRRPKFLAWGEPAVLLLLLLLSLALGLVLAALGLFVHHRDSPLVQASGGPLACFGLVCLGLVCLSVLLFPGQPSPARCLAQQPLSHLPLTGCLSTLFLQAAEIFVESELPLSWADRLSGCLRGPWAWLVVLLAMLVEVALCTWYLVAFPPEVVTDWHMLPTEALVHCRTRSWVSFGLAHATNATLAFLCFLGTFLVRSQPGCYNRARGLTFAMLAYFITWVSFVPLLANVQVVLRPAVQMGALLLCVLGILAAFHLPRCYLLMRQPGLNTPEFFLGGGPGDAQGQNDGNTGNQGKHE
T1 sequence (Q925I4 20-843 partner): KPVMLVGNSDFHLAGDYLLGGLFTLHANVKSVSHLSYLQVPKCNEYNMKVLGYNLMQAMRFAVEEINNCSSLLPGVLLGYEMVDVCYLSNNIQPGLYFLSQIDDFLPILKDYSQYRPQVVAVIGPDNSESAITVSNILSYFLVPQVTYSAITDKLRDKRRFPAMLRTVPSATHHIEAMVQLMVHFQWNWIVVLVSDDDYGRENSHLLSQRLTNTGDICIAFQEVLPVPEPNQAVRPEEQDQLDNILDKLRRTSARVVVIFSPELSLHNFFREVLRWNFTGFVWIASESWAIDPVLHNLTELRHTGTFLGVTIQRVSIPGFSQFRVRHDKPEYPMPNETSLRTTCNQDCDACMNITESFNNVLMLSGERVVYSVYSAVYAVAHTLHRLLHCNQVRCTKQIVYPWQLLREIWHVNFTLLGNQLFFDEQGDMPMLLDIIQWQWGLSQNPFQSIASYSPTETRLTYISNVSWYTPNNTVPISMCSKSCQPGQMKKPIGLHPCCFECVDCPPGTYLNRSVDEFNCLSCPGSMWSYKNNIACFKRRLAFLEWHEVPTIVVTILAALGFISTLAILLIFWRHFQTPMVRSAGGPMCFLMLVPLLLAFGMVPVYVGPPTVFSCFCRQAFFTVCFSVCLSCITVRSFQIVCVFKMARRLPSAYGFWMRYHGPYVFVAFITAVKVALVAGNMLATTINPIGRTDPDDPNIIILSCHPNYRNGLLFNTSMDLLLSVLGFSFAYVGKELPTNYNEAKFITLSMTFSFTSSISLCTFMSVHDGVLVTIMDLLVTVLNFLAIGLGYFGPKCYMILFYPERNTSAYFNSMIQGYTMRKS
Test: sweet taste preference of transgenic mice expressing humanized T1R3
Format: in vivo, mouse
Experimental: We used the chimeric mhT1R3 receptor to produce conventional transgenic animals. The DNA construct was injected into a genetically engineered mouse line that lacks endogenous T1R3 (T1R3KO or T1R3-null). […] We call these mice Line7.
For further crosses, we used the line 7 that has fewer copies of the transgene.
Such compounds may be produced normally in organs (e.g. in testis) or chemically synthesized.

CC(C)(Oc1ccc(Cl)cc1)C(=O)O [clofibric acid]
sweet preference of Line 7 mice (1 mM clofibric acid): blocked
sweet responses of the transgenic animals (lines 7, 9, 7c expressing humanized receptor): completely blocked
